Converted amounts (≈) assume the structure as drawn. Like-named read-outs stand apart in the source and are kept apart here.
Columns and labels:
[1] = system: Mycobacterium tuberculosis H37Rv CNCTC My 331/88 (ATCC 27294); assay: Antimycobacterial microplate alamar blue assay, M. tuberculosis H37Rv; format: cell-based; details: for Antimycobacterial Activity MIC Mtb H37Rv: Middlebrook 7H9 broth pH 6.6, alamar blue; for MIC: Mycobacterium tuberculosis
in vitro = details: human
[2] = system: Mycobacterium smegmatis DSM 43465 (ATCC 607); assay: Antimycobacterial microdilution assay, M. smegmatis; format: cell-based; details: Middlebrook 7H9 broth, resazurin after 48 hours; for MIC: Mycolicibacterium smegmatis, 48 h, read-out: Antimycobacterial Activity MIC M. smeg
[3] = system: M. kansasii CNCTC My 235/80 (ATCC 12478); assay: Antimycobacterial microplate alamar blue assay, M. kansasii; format: cell-based, Mycobacterium kansasii; details: for MIC: Mycobacterium kansasii; for Antimycobacterial Activity MIC M. kansasii: Middlebrook 7H9 broth pH 6.6, alamar blue
[4] = system: Mycobacterium aurum DSM 43999 (ATCC 23366); assay: Antimycobacterial microdilution assay, M. aurum; format: cell-based; details: Middlebrook 7H9 broth, resazurin after 72 hours; for MIC: Mycolicibacterium aurum, 72 h
[5] = system: M. avium ssp. avium CNCTC My 80/72 (ATCC 15769); assay: Antimycobacterial microplate alamar blue assay, M. avium; format: cell-based, Mycobacterium avium; details: for MIC: Mycobacterium avium
[6] = ATCC12478, pH 6.6, Middlebrook 7H9 broth pH 6.6, alamar blue, read-out: Antimycobacterial Activity MIC M. kansasii
[7] = Table 4 comparison, title compounds, read-out: Antimycobacterial Activity MIC against Mtb H37Rv, Sulfonamide
[8] = pH 6.6, Middlebrook 7H9 broth pH 6.6, alamar blue, read-out: Antimycobacterial Activity MIC Mtb H37Rv
[9] = ATCC15769, pH 6.6, Middlebrook 7H9 broth pH 6.6, alamar blue, read-out: Antimycobacterial Activity MIC M. avium
[10] = ATCC12478, molar value printed beside μg/mL in text, read-out: MIC M. kansasii

Row | Compound | Antimycobacterial Activity MIC Mtb H37Rv [1] | MIC ([1]; pH 6.6, read-out: Antimycobacterial Activity MIC Mtb H37Rv) [µg/mL] | IC50 at 24 h (in vitro) [µM] | MIC [2] [µg/mL] | MIC [3, 6] [µg/mL] | MIC [1, 7] [µg/mL] | MIC [1, 8] [µg/mL] | MIC [4] [µg/mL] | melting point [°C] | MIC [5, 9] [µg/mL] | MIC [3, 10] [µM] | MIC ([1]; read-out: MIC Mtb H37Rv) [µM] | MIC ([5]; ATCC15769, molar value printed beside μg/mL in text, read-out: MIC M. avium) [µM] | Antimycobacterial Activity MIC M. kansasii [3] [µg/mL] | Antimycobacterial Activity MIC M. smeg [2] [µg/mL] | Antimycobacterial Activity MIC M. aurum [4] [µg/mL] | Antimycobacterial Activity MIC M. avium ([5]; Middlebrook 7H9 broth pH 6.6, alamar blue) [µg/mL]
1 | NS(=O)(=O)c1ccccc1 [Benzenesulfonamide, benzenesulfonamide] | completely inactive | > 100 |  |  |  |  |  |  |  |  |  |  |  |  |  |  | 
2 | O=S(=O)(Nc1cnccn1)c1ccccc1 [Compound 1a, N-(pyrazin-2-yl)benzenesulfonamide] |  |  | > 1000 | ≥ 250 | 100 | > 100 | > 100 | ≥ 500 | 203 to 205 | > 100 |  |  |  |  |  |  | 
3 | O=S(=O)(Nc1cncc(Cl)n1)c1ccccc1 [Compound 1b, N-(6-chloropyrazin-2-yl)benzenesulfonamide] |  |  | 731 | 250 (≈ 927 µM) | 100 | 50 | 50 | ≥ 500 | 198 to 200.2 | > 100 |  |  |  |  |  |  | 
4 | CC(=O)Nc1ccc(S(=O)(=O)Nc2cnccn2)cc1 [Compound 2a, N-(4-(N-(pyrazin-2-yl)sulfamoyl)phenyl)acetamide] |  |  | > 500 | ≥ 500 | 25 |  | > 100 | ≥ 500 | 243.8 to 245.6 | > 100 | 85.5 |  |  |  |  |  | 
5 | CC(=O)Nc1ccc(S(=O)(=O)Nc2cncc(Cl)n2)cc1 [Compound 2b, N-(4-(N-(6-chloropyrazin-2-yl)sulfamoyl)phenyl)acetamide] |  |  | > 500 | 250 (≈ 765 µM) | 25 |  | > 100 | ≥ 500 |  | > 100 | 76.5 |  |  |  |  |  | 
6 | O=[N+]([O-])c1ccc(S(=O)(=O)Nc2cnccn2)cc1 [Compound 3a, 4-nitro-N-(pyrazin-2-yl)benzenesulfonamide] |  |  | > 1000 | > 500 | > 100 |  | > 100 | > 500 | 230.8 to 231.8 | > 100 |  |  |  |  |  |  | 
7 | O=[N+]([O-])c1ccc(S(=O)(=O)Nc2cncc(Cl)n2)cc1 [Compound 3b, N-(6-chloropyrazin-2-yl)-4-nitrobenzenesulfonamide] |  |  | > 1000 | 250 (≈ 794 µM) | > 100 |  | > 100 | 125 (≈ 397 µM) |  | > 100 |  |  |  |  |  |  | 
8 | Nc1ccc(S(=O)(=O)Nc2cnccn2)cc1 [Compound 4a, 4-amino-N-(pyrazin-2-yl)benzenesulfonamide] |  |  | 776 | ≥ 500 |  |  | 6.25 | 250 (≈ 999 µM) |  | 100 | 6.2 | 25 |  |  |  |  | 
9 | Nc1ccc(S(=O)(=O)Nc2cncc(Cl)n2)cc1 [Compound 4b, 4-amino-N-(6-chloropyrazin-2-yl)benzenesulfonamide] |  |  | > 500 | ≥ 500 | 12.5 |  | 6.25 | 250 (≈ 878 µM) | 234.7 to 236.1 | 25 | 44 | 22 | 88 |  |  |  | 
10 | O=S(=O)(Nc1cnccn1)c1ccc(C(F)(F)F)cc1 [Compound 5a, N-(pyrazin-2-yl)-4-(trifluoromethyl)benzenesulfonamide] |  |  | > 1000 | 250 (≈ 824 µM) | 50 |  | > 100 | 250 (≈ 824 µM) | 154.3 to 155.5 | > 100 |  |  |  |  |  |  | 
11 | O=S(=O)(Nc1cncc(Cl)n1)c1ccc(C(F)(F)F)cc1 [Compound 5b, N-(6-chloropyrazin-2-yl)-4-(trifluoromethyl)benzenesulfonamide] |  |  | 364 | 250 (≈ 740 µM) | > 100 |  | 100 | 250 (≈ 740 µM) | 125 to 127.2 | > 100 |  |  |  |  |  |  | 
12 | COc1ccc(S(=O)(=O)Nc2cnccn2)cc1 [Compound 6a, 4-methoxy-N-(pyrazin-2-yl)benzenesulfonamide] |  |  | > 1000 | ≥ 500 | > 100 | > 100 | > 100 | ≥ 500 |  | > 100 |  |  |  |  |  |  | 
13 | O=S(=O)(Nc1cncc(Cl)n1)c1ccc(Br)cc1 [Compound 7b, 4-bromo-N-(6-chloropyrazin-2-yl)benzenesulfonamide] |  |  | 308 | 125 (≈ 359 µM) | 50 |  | 100 | 125 (≈ 359 µM) | 176.5 to 179.3 | > 100 |  |  |  |  |  |  | 
14 | Cc1cc(C)cc(S(=O)(=O)Nc2cnccn2)c1 [Compound 8a, 3,5-dimethyl-N-(pyrazin-2-yl)benzenesulfonamide] |  |  | > 500 | ≥ 500 | 50 |  | > 100 | 250 (≈ 949 µM) | 184 to 187 | > 100 |  |  |  |  |  |  | 
15 | Cc1cc(C)cc(S(=O)(=O)Nc2cncc(Cl)n2)c1 [Compound 8b, N-(6-chloropyrazin-2-yl)-3,5-dimethylbenzenesulfonamide] |  |  | 523 | ≥ 500 | > 100 |  | 50 | ≥ 500 |  | 50 |  |  |  |  |  |  | 
16 | Cc1cc(C)c(S(=O)(=O)Nc2cnccn2)c(C)c1 [Compound 9a, 2,4,6-trimethyl-N-(pyrazin-2-yl)benzenesulfonamide] |  |  | > 250 | 125 (≈ 451 µM) | > 100 |  | > 100 | ≥ 500 |  | > 100 |  |  |  |  |  |  | 
17 | Cc1cc(C)c(C)c(S(=O)(=O)Nc2cnccn2)c1C [Compound 10a, 2,3,5,6-tetramethyl-N-(pyrazin-2-yl)benzenesulfonamide] |  |  | > 250 | ≥ 500 | 50 |  | > 100 | ≥ 500 | 221 to 223.7 | > 100 |  |  |  |  |  |  | 
18 | O=S(=O)(Nc1cnccn1)c1ccc2c(c1)OCCO2 [Compound 11a, N-(pyrazin-2-yl)-2,3-dihydrobenzo[b][1,4]dioxine-6-sulfonamide] |  |  | > 1000 | ≥ 500 | > 100 |  | > 100 | 250 (≈ 852 µM) | 264 to 267.1 | > 100 | > 305 |  |  | >100 |  |  | 
19 | O=S(=O)(Nc1cnccn1)c1ccc(-c2ccccc2)cc1 [Compound 12a, N-(pyrazin-2-yl)-[1,1′-biphenyl]-4-sulfonamide] |  |  | > 250 | ≥ 500 | 100 |  | 100 | ≥ 500 |  | > 100 | 321 |  |  |  |  |  | 
20 | CO[C@H]1/C=C/O[C@@]2(C)Oc3c(C)c(O)c4c(O)c(c(/C=N/N5CCN(C)CC5)c(O)c4c3C2=O)NC(=O)/C(C)=C\C=C\[C@H](C)[C@H](O)[C@@H](C)[C@@H](O)[C@@H](C)[C@H](OC(C)=O)[C@@H]1C [RFM, reference compound] |  |  |  | 12.5 to 25 (≈ 15.2 to 30.4 µM) |  |  |  | 0.78 to 1.56 (≈ 0.948 to 1.9 µM) |  |  |  |  |  |  | 25 | 1.56 | 
21 | Nc1ccc(S(=O)(=O)Nc2cncc(Cl)n2)cc1 [Sulfaclozine, reference compound] | 6.25 µg/mL |  |  |  |  |  |  |  |  |  |  |  |  | 12.5 | 250 | 250 | 25
22 | Nc1ccc(S(=O)(=O)Nc2cnc3ccccc3n2)cc1 [Sulfaquinoxaline, reference compound] |  |  |  | 125 (≈ 416 µM) | 12.5 |  | 3.13 | 250 (≈ 832 µM) |  | 50 |  |  |  |  |  |  | 

— paper PMC6982817, “Substituted N-(Pyrazin-2-yl)benzenesulfonamides; Synthesis, Anti-Infective Evaluation, Cytotoxicity, and In Silico Studies” (Molecules, 2019)
